According to US9994862B2, “Rice resistant to HPPD and ACCase inhibiting herbicides” (priority 2011, dated 2018):
Entries after “also recorded” stand apart in the source; their conditions may differ.

What was measured:
[1] = system: F2 individuals derived from a cross of ML0831266-03093 and ML0831265-01493; test: Mesotrione herbicide bioassays on segregating F2 population; format: in vivo, rice
Method: The mesotrione tolerant line ML0831266-03093 is tolerant to rates of 420 gm ai/ha and even a dual application of mesotrione first at a rate of 105 gm ai/ha followed three weeks later by an application of 630 gm ai/ha. […] The cross is made and the resulting F1 seeds are harvested, planted, and allowed to self to produce a F2 population. The F2 population is grown and tissue is collected from individual plants. Each F2 plant and parental lines are tested with a set of 192 SNP markers identified as being polymorphic between the two mutant lines ML0831266-03093 and ML0831265-01493. The set of polymorphic markers was identified as evenly spaced across the rice genome after testing both parental lines with a set of 796 SNP markers. All 192 markers including two found with linkage to target traits were selected from the 44 k SNP set described by Zhao et al. 2011.
Seedlings of size 3 to 4 leaves are sprayed with mesotrione herbicide. In one set of 89 plants mesotrione is first applied at 105 gm ai/ha killing 23 plants. Both the mutant line control ML0831266-03093 and the unmutated line P1003 survived the herbicide application while the unmutated line R0146 was killed. The surviving plants including some additional plants making a total of 95 are then sprayed with another treatment of mesotrione at a rate of 630 gm ai/ha killing or injuring 67 while 28 survived. (FIG. 23) The surviving ratio of plants to those killed or injured fits a one quarter ratio with a chi squared value of 1.03, well within the expected for a single recessive gene. Another set of F2 individuals of size 78 individuals are sprayed with a single application of mesotrione herbicide at a rate of 420 gm ai/ha resulting in 26 plants surviving also fitting in the expected one quarter ratio for a single recessive gene with a chi square value of 2.88 (Table 2).

line PL1214418M2-73009 = test: Mesotrione trait tolerance trial; format: in vivo, rice
Method: Two trials were conducted to measure recovery of tolerance to both ACCase and HPPD herbicides in the new line PL1214418M2-73009. Recovery of tolerance in the line combining the two traits will illustrate that the traits are heritable and can be used to produce new varieties and hybrids carrying herbicide resistance. These trials are important as often times it is difficult to recover complex QTLs for quantitative traits or in some cases a traits response is dependent upon the genetic background. In the first trail the lines resistance to mesotrione (HPPD herbicide) was evaluated by planting line PL1214418M2-73009, the HPPD resistant line ML0831266-03093 and wild-type rice line P1003 and R0146 in plots (5 feet×10 feet). […]
During the breeding process to develop new lines (PL1214418M2-80048 and PL1214418M2-73009) with resistance/tolerance to HPPD and ACCase herbicides, two other lines were also investigated to determine the contribution of the HPPD tolerance mutation and the HPPD tolerance native gene. […] The tolerance effect of each gene was measured by growing the lines in single rows including the newly developed line PL1214418M2-73009 that carries both the HPPD tolerance from the mutation and the non-induced tolerance, the HPPD tolerant line ML0831266-0309, and the non-induced parent line P1003. […]

line PL1214418M2-73001 = test: Mesotrione trait tolerance trial; format: in vivo, rice; conditions: 0.5x to 4x of 210 gmai/ha at 4 leaf stage, evaluated 4 weeks after application
Text: During the breeding process to develop new lines (PL1214418M2-80048 and PL1214418M2-73009) with resistance/tolerance to HPPD and ACCase herbicides, two other lines were also investigated to determine the contribution of the HPPD tolerance mutation and the HPPD tolerance native gene. The line PL1214418M2-73001 carries ACCase tolerance and only the HPPD tolerance, whereas […] PL1214418M2-73013 carries ACCase tolerance and only the HPPD native tolerance gene. These selections allow the estimation of the tolerance effect of each of the two genes required for tolerance to HPPD herbicides. The tolerance effect of each gene was measured by growing the lines in single rows including the newly developed line PL1214418M2-73009 that carries both the HPPD tolerance from the mutation and the non-induced tolerance, the HPPD tolerant line ML0831266-0309, and the non-induced parent line P1003. The field plots were sprayed at the 4 leaf stage with the HPPD herbicide mesotrione at 0.5×, 1×, 2×, and 4× multiples of the labeled application rate of 210 gmai/ha.
The plots were evaluated 4 weeks after the herbicide was applied. […] The two genes also appear to function in an additive manner as only by combining the two in the new line PL1214418M2-73009 does the tolerance level become equivalent to the original mutant line ML0831266-0309.

line PL1214418M2-80048 = test: Herbicide tolerance of the combined HPPD and ACCase line; design: species or system rice; conditions: in vivo
Text: An early maturing group of plants was harvested as early as possible and the seeds planted in the greenhouse to help quickly advance to the F4 generation. Selections on the F3 plants were made by molecular markers flanking the HPPD tolerance mutation and native tolerance the ACCase functional mutation. Homozygous plants for all the selected genomic regions were advanced to the F5 generation. The F5 seed was confirmed to carry tolerance to ACCase herbicides and the HPPD herbicide mesotrione. Among the F5 lines PL1214418M2-80048 was selected due to a high seed yield and being homozygous for the ACCase tolerance mutation at position G2096S, the HPPD tolerance mutation, and the HPPD tolerance native gene. Seed from the line PL1214418M2-80048 was deposited at the ATCC and given a deposit number PTA-121362 (see Table 8).
Individuals with tolerance to both mesotrione and ACCase herbicides were selfed to produce F3 families and further selected for other important agronomic characters. The F3 lines were selfed and purified to derive a new line or variety with dual resistance to mesotrione and ACCase herbicides. Such lines are highly valuable as the use of both herbicides provides more complete and broad-spectrum weed control. […]

[2] = one application at 105 gai/ha followed by second application of 630 gai/ha
[3] = single application of mesotrione at 105 gai/ha
[4] = single application of mesotrione at 420 gai/ha

CS(=O)(=O)c1ccc(C(=O)C2C(=O)CCCC2=O)c([N+](=O)[O-])c1 [mesotrione]
number of susceptible plants, observed [1, 2]: 67 plants
number of tolerant plants, observed [1, 2]: 28 plants
number of susceptible plants, observed [1, 3]: 23 plants
number of tolerant plants, observed [1, 3]: 64 plants
number of susceptible plants, observed [1, 4]: 52 plants
number of tolerant plants, observed [1, 4]: 26 plants
tolerance to mesotrione compared with the original HPPD tolerant line ML0831266-03093 (line PL1214418M2-73009; 0.5x to 4x of the labeled rate 210 gmai/ha): equivalent tolerance; also recorded: the same response
tolerance to mesotrione (line PL1214418M2-73009; in vivo): tolerance
tolerance to mesotrione compared with P1003 and ML0831266-0309 (line PL1214418M2-73001): intermediate tolerance
tolerance to the herbicide (line PL1214418M2-80048): tolerance
